SMILES	melting point
CC(C)c1ccc2c(c1)NC(=O)CC(c1ccnc(C#N)c1)=N2 [Example 105, 4-(7-Isopropyl-4-oxo-4,5-dihydro-3H-benzo [b][1,4]diazepin-2-yl)-pyridine-2-carbonitrile]	173 to 178 °C
N#Cc1cccc(C2=Nc3ccc(-c4ccoc4)cc3NC(=O)C2)c1 [Example 14, 3-(7-Furan-3-yl-4-oxo-4,5-dihydro-3H-benzo[b][1,4]diazepin-2-yl)-benzonitrile]	228 to 233 °C (dec.)
N#Cc1cccc(C2=Nc3ccc(-c4ccc(Cl)c(Cl)c4)cc3NC(=O)C2)c1 [Example 31, 3-[7-(3,4-Dichloro-phenyl)-4-oxo-4,5-dihydro-3H-benzo [b][1,4]diazepin-2-yl]-benzonitrile]	252 to 255 °C (dec.)
CS(=O)(=O)N1CC=C(C#Cc2ccc3c(c2)NC(=O)CC(c2cccc(C#N)c2)=N3)CC1 [Example 142, 3-[7-(1-Methanesulfonyl-1,2,3,6-tetrahydro-pyridin-4-ylethynyl)-4-oxo-4,5-dihydro-3H-benzo[b][1,4]diazepin-2-yl]-benzonitrile]	235 °C
N#Cc1cccc(C2=Nc3ccc(-c4ccc(-c5ccccc5)cc4)cc3NC(=O)C2)c1 [Example 54, 3-(7-Biphenyl-4-yl-4-oxo-4,5-dihydro-3H-benzo [b][1,4]diazepin-2-yl)-benzonitrile]	251 to 253 °C
Cc1csc(-c2cccc(C3=Nc4ccc(-c5ccc(F)cc5)cc4NC(=O)C3)c2)n1 [Example 152, 8-(4-Fluoro-phenyl)-4-[3-(4-methyl-thiazol-2-yl)-phenyl]-1,3-dihydro-benzo [b][1,4]diazepin-2-one]	259 to 261 °C (dec.)
O=C1CC(c2cccc(-c3nc(CO)cs3)c2)=Nc2ccc(-c3ccc(F)cc3)cc2N1 [Example 156, 8-(4-Fluoro-phenyl)-4-[3-(4-hydroxymethyl-thiazol-2-yl)-phenyl]-1,3-dihydro-benzo[b][1,4]diazepin-2-one]	235 to 239 °C (dec.)
Cc1cn(-c2nc(C3=Nc4ccc(-c5ccc(F)cc5)cc4NC(=O)C3)cs2)cn1 [Example 107, 8-(4-Fluoro-phenyl)-4-[2-(4-methyl-imidazol-1-yl)-thiazol-4-yl]-1,3-dihydro-benzo[b][1,4]diazepin-2-one]	229 °C
N#Cc1cccc(C2=Nc3ccc(C#Cc4nccs4)cc3NC(=O)C2)c1 [Example 21, 3-(4-Oxo-7-thiazol-2-ylethynyl-4,5-dihydro-3H-benzo[b][1,4]diazepin-2-yl)-benzonitrile]	230 °C (dec.)
N#Cc1cc(C2=Nc3ccc(C4CC4)cc3NC(=O)C2)ccn1 [Example 112, 4-(7-Cyclopropyl-4-oxo-4,5-dihydro-3H-benzo[b][1,4]diazepin-2-yl)-pyridine-2-carbonitrile]	227 to 230 °C
O=C1CC(c2cccc(-n3cncn3)c2)=Nc2ccc(-c3ccc(F)cc3)cc2N1 [Example 64, 8-(4-Fluoro-phenyl)-4-(3-[1,2,4]triazol-1-yl-phenyl)-1,3-dihydro-benzo [b][1,4]diazepin-2-one]	241 to 245 °C
Cc1cn(-c2cccc(C3=Nc4ccc(-c5ccc(F)cc5)cc4NC(=O)C3)c2)c(C)n1 [Example 89, 4-[3-(2,4-Dimethyl-imidazol-1-yl)-phenyl]-8-(4-fluoro-phenyl)-1,3-dihydro-benzo[b][1,4]diazepin-2-one]	188 °C
CN1CCN(C(=O)c2cccc(C3=Nc4ccc(C#Cc5ccccc5)cc4NC(=O)C3)c2)CC1 [Example 147, 4-[3-(4-Methyl-piperazine-1-carbonyl)-phenyl]-8-phenylethynyl-1,3-dihydro-benzo[b][1,4]diazepin-2-one]	168 to 172 °C (dec.)
O=C1CC(c2cccc(-c3nc(C(=O)NCCO)cs3)c2)=Nc2ccc(-c3ccc(F)cc3)cc2N1 [Example 161, 2-{3-[7-(4-Fluoro-phenyl)-4-oxo-4,5-dihydro-3H-benzo [b][1,4]diazepin-2-yl]-phenyl}-thiazole-4-carboxylic Acid (2-hydroxy-ethyl)-amide]	238 to 245 °C (dec.)
O=C1CC(c2ccncc2)=Nc2ccc(C#Cc3ccccc3)cc2N1 [Example 12, 8-Phenylethynyl-4-pyridin-4-yl-1,3-dihydro-benzo[b][1,4]diazepin-2-one]	198 to 200 °C (dec.)
O=C1CC(c2cccs2)=Nc2ccc(I)cc2N1 [Example 25, 8-Iodo-4-thiophen-2-yl-1,3-dihydro-benzo[b][1,4]diazepin-2-one]	> 260 °C
CC(=O)N1CC=C(C#Cc2ccc3c(c2)NC(=O)CC(c2cccc(C#N)c2)=N3)CC1 [Example 141, 3-[7-(1-Acetyl-1,2,3,6-tetrahydro-pyridin-4-ylethynyl)-4-oxo-4,5-dihydro-3H-benzo[b][1,4]diazepin-2-yl]-benzonitrile]	203 °C

Next, values leading:

melting point	SMILES
240 to 243 °C (dec.)	COc1cccc(-c2ccc3c(c2)NC(=O)CC(c2cccc(C#N)c2)=N3)c1 [Example 39, 3-[7-(3-Methoxy-phenyl)-4-oxo-4,5-dihydro-3H-benzo [b][1,4]diazepin-2-yl]-benzonitrile]
232 to 234 °C (dec.)	NC(=S)c1cccc(C2=Nc3ccc(-c4ccccc4F)cc3NC(=O)C2)c1 [Example 150, 3-[7-(2-Fluoro-phenyl)-4-oxo-4,5-dihydro-3H-benzo[b][1,4]diazepin-2-yl]-thiobenzamide]
222 to 224 °C	Cc1cc(-c2cccc(C3=Nc4ccc(-c5ccccc5F)cc4NC(=O)C3)c2)on1 [Example 127, 8-(2-Fluoro-phenyl)-4-[3-(3-methyl-isoxazol-5-yl)-phenyl]-1,3-dihydro-benzo-[b][1,4]diazepin-2-one]
207 °C (dec.)	N#Cc1cccc(C2=Nc3ccc(C(=O)c4ccccc4)cc3NC(=O)C2)c1 [Example 36, 3-(7-Benzoyl-4-oxo-4,5-dihydro-3H-benzo [b][1,4]diazepin-2-yl)-benzonitrile]
189 to 190 °C	COCSc1nccn1-c1cccc(C2=Nc3ccc(-c4ccccc4F)cc3NC(=O)C2)c1 [Example 102, 8-(2-Fluoro-phenyl)-4-[3-(2-methoxymethylsulfanyl-imidazol-1-yl)-phenyl]-1,3-dihydro-benzo[b][1,4]diazepin-2-one]
> 250 °C (dec.)	NC(=O)c1cccc(C2=Nc3ccc(C#Cc4ccccc4)cc3NC(=O)C2)c1 [Example 148, 3-(4-Oxo-7-phenylethynyl-4,5-dihydro-3H-benzo [b][1,4]diazepin-2-yl)-benzamide]
247 °C	N#Cc1cccc(C2=Nc3ccc(-c4cc(F)ccc4F)cc3NC(=O)C2)c1 [Example 125, 3-[7-(2,5-Difluoro-phenyl)-4-oxo-4,5-dihydro-3H-benzo [b][1,4]diazepin-2-yl]-benzonitrile]
267 to 270 °C (dec.)	NC(=S)c1cccc(C2=Nc3ccc(-c4ccc(F)cc4)cc3NC(=O)C2)c1 [Example 149, 3-[7-(4-Fluoro-phenyl)-4-oxo-4,5-dihydro-3H-benzo [b][1,4]diazepin-2-yl]-thiobenzamide]
240 °C	N#Cc1cccc(C2=Nc3ccc(-c4cccc(F)c4F)cc3NC(=O)C2)c1 [Example 51, 3-[7-(2,3-Difluoro-phenyl)-4-oxo-4,5-dihydro-3H-benzo [b][1,4]diazepin-2-yl]-benzonitrile]

Reference: patent publication US6509328B1, “Glutamate receptor antagonists” (Hoffmann-La Roche Inc., priority 1999, dated 2003)
